pIC50: −log10 of the molar value. Calls of active or inactive are those of the source. The calls are words filed in the database; no cut-off is given here.
Assays:
[1] = Inhibition of PREP (unknown origin) using fluorogenic substrate by spectrometric assay; set-up: species or system Homo sapiens
[2] = Metabolic stability in human plasma incubated for 2 hrs by LC/MS-MS analysis; format: ADME, cell-free
[3] = Drug degradation in mouse liver microsomes measured up to 1 min incubated for 2 hrs by LC/MS-MS analysis; format: ADME, Microsome
CCRF-CEM = assay: Cytotoxicity against human CCRF-CEM cells assessed as reduction in cell viability incubated for 72 hrs measured by […]-based colorimetric assay; format: functional
HepG2 = assay: Cytotoxicity against human HepG2 cells assessed as reduction in cell viability incubated for 72 hrs measured by […]-based colorimetric assay; format: functional
HeLa = assay: Cytotoxicity against human HeLa cells assessed as reduction in cell viability incubated for 72 hrs measured by […]-based colorimetric assay; format: functional
HL-60 = assay: Cytotoxicity against human HL-60 cells assessed as reduction in cell viability incubated for 72 hrs measured by […]-based colorimetric assay; format: functional
Dipeptidyl peptidase 4 = Dipeptidyl peptidase 4 (Homo sapiens, UniProt P27487); assay: Inhibition of SF-tagged DPP4 (unknown origin) expressed in Drosophila S2 cells using fluorogenic substrate by spectrometric analysis; format: cell-based
Sequence of Dipeptidyl peptidase 4 (P27487 whole entry): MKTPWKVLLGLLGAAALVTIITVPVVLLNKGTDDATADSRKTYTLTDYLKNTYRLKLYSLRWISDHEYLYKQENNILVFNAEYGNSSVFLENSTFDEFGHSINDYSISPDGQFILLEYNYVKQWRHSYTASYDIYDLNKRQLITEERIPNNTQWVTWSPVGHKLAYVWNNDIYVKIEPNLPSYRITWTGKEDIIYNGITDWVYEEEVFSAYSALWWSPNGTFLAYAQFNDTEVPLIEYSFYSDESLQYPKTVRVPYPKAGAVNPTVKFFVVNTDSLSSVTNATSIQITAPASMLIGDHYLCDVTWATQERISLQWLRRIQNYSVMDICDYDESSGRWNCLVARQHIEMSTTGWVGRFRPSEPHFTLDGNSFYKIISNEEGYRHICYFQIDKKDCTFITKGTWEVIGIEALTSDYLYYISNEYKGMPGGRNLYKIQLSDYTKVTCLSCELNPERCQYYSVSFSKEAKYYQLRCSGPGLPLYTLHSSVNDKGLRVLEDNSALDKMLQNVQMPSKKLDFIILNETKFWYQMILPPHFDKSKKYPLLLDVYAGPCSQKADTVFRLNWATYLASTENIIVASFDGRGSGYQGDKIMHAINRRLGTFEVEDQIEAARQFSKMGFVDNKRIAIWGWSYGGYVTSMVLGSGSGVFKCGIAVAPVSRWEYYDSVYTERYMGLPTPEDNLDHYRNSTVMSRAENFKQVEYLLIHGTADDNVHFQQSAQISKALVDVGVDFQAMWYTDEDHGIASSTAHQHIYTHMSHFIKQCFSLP

[4] = Drug degradation in human plasma measured up to 1 min incubated for 2 hrs by LC/MS-MS analysis; format: ADME, cell-free

pIC50 [1] | Stabilty [2] | Stabilty [3] | pIC50 (Dipeptidyl peptidase 4) | Stabilty [4] | SMILES | Activity (CCRF-CEM) | Activity (HepG2) | Activity (HeLa) | Activity (HL-60)
9.44 | Stable | Unstable | < 5.40 | Unstable | COC(=O)[C@H](Cc1ccccc1)NC(=O)CNC(=O)C(=O)[C@@H]1CCCN1C(=O)CNC(=O)c1ccnc2ccccc12 | inactive | inactive | inactive | inactive
9.62 | Stable | – | – | – | COc1ccc(CNC(=O)C(=O)[C@@H]2CCCN2C(=O)CNC(=O)c2ccnc3ccccc23)cc1OC | inactive | inactive | inactive | inactive

The remaining lines, values behind:

SMILES | pIC50 [1] | Stabilty [2] | Stabilty [3] | pIC50 (Dipeptidyl peptidase 4) | Stabilty [4] | Activity (CCRF-CEM) | Activity (HepG2) | Activity (HeLa) | Activity (HL-60)
COc1ccc(CCNC(=O)C(=O)[C@@H]2CCCN2C(=O)CNC(=O)c2ccnc3ccccc23)cc1OC | 9.37 | Stable | Unstable | – | – | inactive | inactive | inactive | inactive
O=C(NCc1ccccc1)C(=O)[C@@H]1CCCN1C(=O)CNC(=O)c1ccnc2ccccc12 | – | Stable | Unstable | – | – | inactive | inactive | inactive | inactive
COC(=O)[C@H](CCC(=O)OCc1ccccc1)NC(=O)CNC(=O)C(=O)[C@@H]1CCCN1C(=O)CNC(=O)c1ccnc2ccccc12 | – | Stable | Unstable | – | Unstable | inactive | inactive | inactive | inactive

Reference: ChEMBL document CHEMBL4842347, “Structure-activity relationship and biochemical evaluation of novel fibroblast activation protein and prolyl endopeptidase inhibitors with α-ketoamide warheads” (Eur J Med Chem, 2021)
